We go through 2 compounds from ChEMBL document CHEMBL2074564, “P-glycoprotein interactions of nefazodone and trazodone in cell culture” (J Clin Pharmacol, 2001).

Format in all cases: functional, cell-based
The target of data set [1] is T1, ATP-dependent translocase ABCB1 (Homo sapiens, UniProt P08183). The experiment in a line: TP_TRANSPORTER: Western blot, LS180V cell. (In general: In western blotting, separated proteins are transferred to a membrane and probed.)
The target of data set [2] is T1, ATP-dependent translocase ABCB1. The experiment in a line: TP_TRANSPORTER: inhibition of Rhodamine 123 transepithelial transport (basal to apical) (R123: 5 uM) in Caco-2 cells.
The target is the same in data set [3]. The experiment in a line: TP_TRANSPORTER: transepithelial transport (basal to apical) in Caco-2 cells.

T1 sequence (P08183 whole entry): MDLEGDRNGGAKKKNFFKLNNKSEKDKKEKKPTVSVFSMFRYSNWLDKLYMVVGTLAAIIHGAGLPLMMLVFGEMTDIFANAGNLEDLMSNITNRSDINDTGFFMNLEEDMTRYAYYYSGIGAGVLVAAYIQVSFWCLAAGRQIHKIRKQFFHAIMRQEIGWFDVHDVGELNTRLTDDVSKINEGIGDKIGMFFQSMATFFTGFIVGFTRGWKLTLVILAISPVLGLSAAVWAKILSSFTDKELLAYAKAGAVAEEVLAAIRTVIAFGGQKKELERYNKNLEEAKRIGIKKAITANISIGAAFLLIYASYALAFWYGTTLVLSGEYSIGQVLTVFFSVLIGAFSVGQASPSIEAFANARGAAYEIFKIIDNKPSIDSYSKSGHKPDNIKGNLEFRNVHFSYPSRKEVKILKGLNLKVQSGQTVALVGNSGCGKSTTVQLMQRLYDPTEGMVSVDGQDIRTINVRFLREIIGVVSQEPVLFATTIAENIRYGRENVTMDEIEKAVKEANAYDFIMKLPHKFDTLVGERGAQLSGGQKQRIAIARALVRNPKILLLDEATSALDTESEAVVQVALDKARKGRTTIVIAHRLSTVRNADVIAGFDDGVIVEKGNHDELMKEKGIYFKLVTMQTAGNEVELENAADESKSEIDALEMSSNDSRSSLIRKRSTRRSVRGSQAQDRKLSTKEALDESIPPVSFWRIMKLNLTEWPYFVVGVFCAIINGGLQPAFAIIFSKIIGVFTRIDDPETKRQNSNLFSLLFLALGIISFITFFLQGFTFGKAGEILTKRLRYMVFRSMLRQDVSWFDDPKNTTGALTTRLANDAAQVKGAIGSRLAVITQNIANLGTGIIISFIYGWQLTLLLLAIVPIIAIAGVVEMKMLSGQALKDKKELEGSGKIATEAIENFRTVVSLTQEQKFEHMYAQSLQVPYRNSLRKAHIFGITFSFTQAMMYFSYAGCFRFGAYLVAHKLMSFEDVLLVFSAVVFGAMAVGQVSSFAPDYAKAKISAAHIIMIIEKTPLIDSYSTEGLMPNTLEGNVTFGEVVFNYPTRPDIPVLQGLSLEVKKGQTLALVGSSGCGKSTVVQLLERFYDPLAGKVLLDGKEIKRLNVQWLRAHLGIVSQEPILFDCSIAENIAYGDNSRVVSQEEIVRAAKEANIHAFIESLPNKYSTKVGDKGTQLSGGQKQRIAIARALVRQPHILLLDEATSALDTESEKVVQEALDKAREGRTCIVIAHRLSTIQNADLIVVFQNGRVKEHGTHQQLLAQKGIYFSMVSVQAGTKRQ

`O=c1n(CCCN2CCN(c3cccc(Cl)c3)CC2)nc2ccccn12` [TRAZODONE]: the Activity entry in data set [1] is “inducer [+]”.

With `CCc1nn(CCCN2CCN(c3cccc(Cl)c3)CC2)c(=O)n1CCOc1ccccc1` [NEFAZODONE], in data set [2], the IC50 (in general, the concentration that gives 50% inhibition) came to 4.7 µM. Further, the values for the Activity entry in data set [1] and in data set [3] were “inducer [+]” and “is not a substrate [-]”, respectively.
